The numbers were not newly measured in patent US20220312825A1 (priority 2021, published 2022), which cites them from elsewhere.

Structures are written as SMILES.

The conditions of this data set: free base (non-protonated).

In the case of `CN1CCCC1c1cccnc1` (stereo not shown) [Free-base nicotine, 3-(1-methyl-2-pyrrolidinyl) pyridine], the pKa value entry is recorded as “about 8”.
